# Experimental data published in US10369134B2, “Nonracemic mixtures and uses thereof” (Sunovion Pharmaceuticals Inc., priority 2017, dated 2019).
# Read-outs that look alike come from different tables or passages of the source.
# Experiments:
# [1] = cited from earlier work
# [2] = Plasma (S)-amisulpride levels during the PET study; assay type: in vivo; conditions: human, single oral solution 25-200 mg
# Method: Plasma samples were collected throughout the course of the PET scan session and were analyzed for (S)-amisulpride levels.
# [3] = Solubility of crystal forms; assay type: physicochemical; conditions: thermodynamic from solid
# Text: In various embodiments, the compositions of the present inventions use new crystalline forms of enantiomeric amisulpride, Form A and Form A′. […] It is to be understood that upon dissolution of the compound it is no longer of a crystalline form, thus one of ordinary skill in the art will understand that the specific rotation in Table 7 refers to that of the non-crystalline compound.
# [4] = Dynamic vapor sorption (DVS) water sorption isotherm; assay type: physicochemical; conditions: for maximum mass change in water sorption isotherms: 25° C., scanned over 0 to 95% relative humidity; for Change Mass: FIG. 8D
# Text: In various embodiments, the hygroscopicity of crystal forms of racemic amisulpride, enantiomeric amisulpride, and enantiomeric amisulpride solvates are characterized by dynamic vapor sorption (DVS). DVS is a gravimetric technique that measures how much of a solvent is absorbed by a sample by varying the vapor concentration surrounding the sample (e.g., relative humidity) and measuring the change in mass. In the present application, DVS is used to generate water sorption isotherms, which represent the equilibrium amount of vapor sorbed as a function of steady state relative vapor pressure at a constant temperature.
# rat = assay: Forced Swim test; assay type: in vivo
# Method: The Forced Swim test (FST) is an indicator of the antidepressant-like activity of a test compound. The rat will swim before “giving up” and becoming immobile. A compound with antidepressant-like activity will decrease the time the rat is immobile.
# The animals (n=90) were divided into five groups. […] In the training session, each animal was gently placed into the plastic cylinder containing 5.8 L of water set at 25±1° C. Fifteen minutes after the beginning of the training session, the animal was removed from the water. The dosing solutions were administered 15 minutes after finishing of the training.
# The swim test was performed for 5 minutes in the same manner as the training session. In the swim test, the behavior of each animal was horizontally recorded using a video camera. After the swim test, animals were immediately sacrificed by inhalation of carbon dioxide.
# The swim movies were handled in a blind manner to ensure that the person who measured the immobility time had no information on the treatment. An animal was judged to be immobile whenever it remained floating in the water without moving its body or forepaws except for the slight movement to maintain its posture. The total time for which the animal remained immobile was defined as the immobility time. An observer blinded to the doses measured the immobility times. The immobility time of each animal was measured to one decimal place and rounded to a whole number. Immobility time was expressed in units of seconds. In each series the means of immobility time were calculated and rounded to a whole number using. The mean and standard error (SE) for each group were calculated using the data obtained from three experimental series and rounded to a whole number. All results are represented as the mean±SE.
# The data of imipramine were analyzed using t-test with a two-sided significance level of 5% (p<0.05).
# [5] = 0.05 M acetate buffer, aqueous buffer, solution pH 4.5, read-out: Solubility, 0.05 M Acetate Buffer
# [6] = acetone/MtBE 1:4, organic solvent or mixture, read-out: Solubility, Acetone/MtBE 1:4
# [7] = acetone/MtBE 1:9, organic solvent or mixture, read-out: Solubility, Acetone/MtBE 1:9
# [8] = ethyl acetate, organic solvent or mixture, read-out: Solubility, Ethyl Acetate
# [9] = simulated gastric fluid (no enzyme), pH 1.1, simulated gastric fluid, pH adjusted to 1.1 (Form A), 1.2 (Form A′), read-out: Solubility, Simulated Gastric Fluid (no enzyme)
# [10] = simulated intestinal fluid (no enzyme), pH 6.7, fassgf or other biorelevant, pH adjusted to 6.7 (Form A), 6.9 (Form A′), read-out: Solubility, Simulated Intestinal Fluid (no enzyme)
# [11] = water, pH 10.2, water, read-out: Solubility, Water
compound,measurement,setting,value
OCCOCCN1CCN(C2=Nc3ccccc3Sc3ccccc32)CC1 [quetiapine],elimination half-life,[1]; literature (Delaney and Nemeroff 2001),about 7 hours
"CCN1CCC[C@H]1CNC(=O)c1cc(S(=O)(=O)CC)c(N)cc1OC [(S)-amisulpride, S-4-Amino-N-[(1-ethyl-2-pyrrolidinyl)methyl]-5-(ethylsulfonyl)-2-methoxybenzamide]",time frame in which plasma concentrations peaked,[2],approximately 3 hour
"CCN1CCC[C@@H]1CNC(=O)c1cc(S(=O)(=O)CC)c(N)cc1OC [(R)-amisulpride Form A, R-4-Amino-N-[(1-ethyl-2-pyrrolidinyl)methyl]-5-(ethylsulfonyl)-2-methoxybenzamide]",solubility,[3]; [5],> 100000 µg/mL
same,solubility,[3]; [6],8000 µg/mL
same,solubility,[3]; [7],2000 µg/mL
same,solubility,[3]; [8],3900 µg/mL
same,solubility,[3]; [9],> 100000 µg/mL
same,solubility,[3]; [10],> 100000 µg/mL
same,solubility,[3]; [11],2000 µg/mL
"CCN1CCCC1CNC(=O)c1cc(S(=O)(=O)CC)c(N)cc1OC.O=C(O)C(O)C(O)C(=O)O [(S)-amisulpride D-tartrate, reference compound]",maximum mass change in water sorption isotherms,[4],52±9%
"CCN1CCC[C@H]1CNC(=O)c1cc(S(=O)(=O)CC)c(N)cc1OC [(S)-amisulpride Form A′, S-4-Amino-N-[(1-ethyl-2-pyrrolidinyl)methyl]-5-(ethylsulfonyl)-2-methoxybenzamide]",maximum mass change in water sorption isotherms,[4],0.35%
same,Change Mass,"[4]; 19.077 mg, relative humidity 0 %, rising steps",0.00 wt %
same,Change Mass,"[4]; relative humidity 1 %, falling steps",−0.01 wt %
same,Change Mass,"[4]; relative humidity 10 %, falling steps",0.01 wt %
same,Change Mass,"[4]; relative humidity 10 %, rising steps",0.03 wt %
same,Change Mass,"[4]; relative humidity 20 %, falling steps",0.03 wt %
same,Change Mass,"[4]; relative humidity 20 %, rising steps",0.05 wt %
same,Change Mass,"[4]; relative humidity 30 %, falling steps",0.05 wt %
same,Change Mass,"[4]; relative humidity 30 %, rising steps",0.07 wt %
same,Change Mass,"[4]; relative humidity 40 %, falling steps",0.07 wt %
same,Change Mass,"[4]; relative humidity 40 %, rising steps",0.09 wt %
same,Change Mass,"[4]; relative humidity 50 %, falling steps",0.08 wt %
same,Change Mass,"[4]; relative humidity 50 %, rising steps",0.11 wt %
same,Change Mass,"[4]; relative humidity 60 %, falling steps",0.11 wt %
same,Change Mass,"[4]; relative humidity 60 %, rising steps",0.13 wt %
same,Change Mass,"[4]; relative humidity 70 %, falling steps",0.14 wt %
same,Change Mass,"[4]; relative humidity 70 %, rising steps",0.16 wt %
same,Change Mass,"[4]; relative humidity 75 %, falling steps",0.16 wt %
same,Change Mass,"[4]; relative humidity 75 %, rising steps",0.18 wt %
same,Change Mass,"[4]; relative humidity 80 %, falling steps",0.17 wt %
same,Change Mass,"[4]; relative humidity 80 %, rising steps",0.19 wt %
same,Change Mass,"[4]; relative humidity 90 %, falling steps",0.28 wt %
same,Change Mass,"[4]; relative humidity 90 %, rising steps",0.25 wt %
same,Change Mass,"[4]; relative humidity 95 %, first step at 95 %",0.34 wt %
same,Change Mass,"[4]; relative humidity 95 %, second step at 95 %",0.35 wt %
same,solubility,[3]; [5],> 100000 µg/mL
same,solubility,[3]; [6],8000 µg/mL
same,solubility,[3]; [7],2000 µg/mL
same,solubility,[3]; [8],3900 µg/mL
same,solubility,[3]; [9],> 100000 µg/mL
same,solubility,[3]; [10],> 100000 µg/mL
same,solubility,[3]; [11],2000 µg/mL
"CCN1CCCC1CNC(=O)c1cc(S(=O)(=O)CC)c(N)cc1OC (racemic) [racemic amisulpride, 4-amino-N-[(1-ethylpyrrolidin-2-yl)methyl]-5-ethylsulfonyl-2-methoxy-benzamide]",terminal plasma half-life,"[1]; biphasic elimination, Coukell et al. 1996",approximately 12 hours
"CN(C)CCCN1c2ccccc2CCc2ccccc21 [Imipramine, imipramine]",immobility time,"rat; 10 mg/kg i.p. at 24, 5 and 1 h before swim test, mean ± SE, vehicle 168±12",105 ± 15 s
same,shortening of immobility time,"rat; 10 mg/kg i.p., in all series, vs vehicle",more than 20%
